Measured values taken from US20090281121A1, “SUBSTITUTED 8-PIPERIDINYL-2-PYRIDINYL-PYRIMIDO[1,2-a] PYRIMIDIN-6-ONE AND 8-PIPERIDINYL-2-PYRIMIDINYL-PYRIMIDO[1,2-a] PYRIMIDIN-6-ONE DERIVATIVES” (SANOFI-AVENTIS, priority 2006, published 2009).
Structures can show the parent of a compound that is named as a salt.

Key:
[1] = target: GSK3β (Homo sapiens, UniProt P49841); assay: Inhibitory activity against GSK3β (33P-ATP phosphorylation of prephosphorylated GS1 peptide, two protocols); type: biochemical; conditions: first or second protocol not specified
Procedure: Two different protocols can be used.
In a first protocol: 7.5 μM of prephosphorylated GS1 peptide and 10 μM ATP (containing 300,000 cpm of 33P-ATP) were incubated in 25 mM Tris-HCl, pH 7.5, 0.6 mM DTT, 6 mM MgCl2, 0.6 mM EGTA, 0.05 mg/ml BSA buffer for 1 hour at room temperature in the presence of GSK3beta (total reaction volume: 100 microliters).
In a second protocol: 4.1 μM of prephosphorylated GS1 peptide and 42 μM ATP (containing 260,000 cpm 33P-ATP) were incubated in 80 mM Mes-NaOH, pH 6.5, 1 mM Mg acetate, 0.5 mM EGTA, 5 mM 2-mercaptoethanol, 0.02% Tween 20, 10% glycerol buffer for 2 hours at room temperature in the presence of GSK3beta. Inhibitors were solubilized in DMSO (final solvent concentration in the reaction medium, 1%).
The reaction was stopped with 100 microliters of a solution made of 25 g polyphosphoric acid (85% P2O5), 126 ml 85% H3PO4, H2O to 500 ml and then diluted to 1:100 before use. An aliquot of the reaction mixture was then transferred to Whatman P81 cation exchange filters and rinsed with the solution described above. Incorporated 33P radioactivity was determined by liquid scintillation spectrometry.
The phosphorylated GS-1 peptide had the following sequence NH2-[…](P)EDEE-COOH. (Woodgett, J. R. (1989) Analytical Biochemistry 180, 237-241.

GSK3β, sequence (P49841 whole entry): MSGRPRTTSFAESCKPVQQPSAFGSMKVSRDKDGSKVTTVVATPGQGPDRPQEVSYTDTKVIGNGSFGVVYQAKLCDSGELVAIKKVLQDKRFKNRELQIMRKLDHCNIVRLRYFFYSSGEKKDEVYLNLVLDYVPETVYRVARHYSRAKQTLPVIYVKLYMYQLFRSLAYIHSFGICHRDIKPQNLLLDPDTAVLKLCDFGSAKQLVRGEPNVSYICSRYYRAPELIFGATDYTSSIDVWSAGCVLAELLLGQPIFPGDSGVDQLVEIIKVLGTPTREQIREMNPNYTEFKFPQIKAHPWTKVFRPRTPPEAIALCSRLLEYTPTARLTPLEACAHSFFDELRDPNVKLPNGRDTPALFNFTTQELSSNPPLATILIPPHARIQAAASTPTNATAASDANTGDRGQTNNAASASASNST

Row | melting point [°C] | IC50 [1] [nM] | Structure (SMILES)
1 | 255 to 257 | – | O=C(CN1c2nc(-c3ccncc3)cc(=O)n2CCC1C1CCNCC1)c1cccc(Br)c1 (racemic) (as salt: hydrochloride) [compound 8, (−)9-[2-Oxo-2-(3-bromo-phenyl)ethyl]-8-(4-piperidinyl)-2-(4-pyridinyl)-6,7,8,9-tetrahydro-4H-pyrimido[1,2-a]pyrimidin-4-one]
2 | – | 12 | O=C(CN1c2nc(-c3ccncc3)cc(=O)n2CCC1C1CCNCC1)c1ccccc1 (racemic) [Compound No. 3, (+/−)-9-(2-Oxo-2-phenylethyl)-8-(4-piperidinyl)-2-(4-pyridinyl)-6,7,8,9-tetrahydro-4H-pyrimido[1,2-a]pyrimidin-4-one]
3 | 270 to 272 | – | COc1cc(F)ccc1CCN1c2nc(-c3ccncc3)cc(=O)n2CCC1C1CCNCC1 (racemic) [compound 7, (+/−)9-[2-(4-fluoro-2-methoxy-phenyl)ethyl]-8-(4-piperidinyl)-2-(4-pyridinyl)-6,7,8,9-tetrahydro-4H-pyrimido[1,2-a]pyrimidin-4-one]
